# In ChEMBL document CHEMBL5241111, “Non-steroidal anti-inflammatory drugs: recent advances in the use of synthetic COX-2 inhibitors” (RSC Med Chem, 2022):
# Target: COX-1/COX-2 (Homo sapiens) (UniProt P35354+P23219)
# Assay: Selectivity index, ratio of IC50 for inhibition of COX-1 (unknown origin) to IC50 for inhibition of COX-2 (unknown origin)
# Format: protein assay
# Conditions: not given
row,Structure (SMILES),Ratio IC50
1,CS(=O)(=O)c1ccc(-n2cc(-c3ccc(C(F)(F)F)cc3)nn2)cc1,0.008
2,NS(=O)(=O)c1ccc(-n2cc(-c3ccc(C(F)(F)F)cc3)nn2)cc1,0.008
3,CC(=O)c1nnn(-c2ccc(S(N)(=O)=O)cc2)c1C,1.95
4,Cc1c(C2=NNC(c3ccccc3)C2)nnn1-c1ccc(S(N)(=O)=O)cc1 (stereo unspecified),1.95
5,NS(=O)(=O)c1ccc(-c2nn(-c3ccc([N+](=O)[O-])cc3)cc2C=O)cc1,0.008
6,CCC(=O)c1nnn(-c2ccc(S(N)(=O)=O)cc2)c1C,1.95
7,NS(=O)(=O)c1ccc(C(=O)OCCn2cc(-c3ccc(C(F)(F)F)cc3)nn2)cc1,0.008
8,C/C(=N\NC(=O)c1nnn(-c2ccc(S(N)(=O)=O)cc2)c1C)c1nnn(-c2ccc(S(N)(=O)=O)cc2)c1C,1.95
9,CS(=O)(=O)c1ccc(C(=O)OCCn2cc(-c3ccc(C(F)(F)F)cc3)nn2)cc1,0.008
10,C/C(=N\NC(=O)c1nnn(-c2ccc(S(N)(=O)=O)cc2)c1C)c1cc2ccccc2o1,1.95
11,Cc1c(C(=O)NNC(=S)Nc2ccccc2)nnn1-c1ccc(S(N)(=O)=O)cc1,1.95
12,Cc1c(C(=O)NN)nnn1-c1ccc(S(N)(=O)=O)cc1,1.95
13,Cc1c(C(=O)/C=C/c2ccccc2)nnn1-c1ccc(S(N)(=O)=O)cc1,1.95
14,CC(=O)N1N=C(c2nnn(-c3ccc(S(N)(=O)=O)cc3)c2C)CC1c1ccccc1 (stereo unspecified),1.95
15,CS(=O)(=O)c1ccc(-c2nn(-c3ccc(S(N)(=O)=O)cc3)cc2C=O)cc1,0.008
16,O=Cc1cn(-c2ccc(Br)cc2)nc1-c1ccc(Br)cc1,0.008

# Target: T1, Polyunsaturated fatty acid 5-lipoxygenase (Homo sapiens, UniProt P09917)
# T1 sequence (P09917 whole entry): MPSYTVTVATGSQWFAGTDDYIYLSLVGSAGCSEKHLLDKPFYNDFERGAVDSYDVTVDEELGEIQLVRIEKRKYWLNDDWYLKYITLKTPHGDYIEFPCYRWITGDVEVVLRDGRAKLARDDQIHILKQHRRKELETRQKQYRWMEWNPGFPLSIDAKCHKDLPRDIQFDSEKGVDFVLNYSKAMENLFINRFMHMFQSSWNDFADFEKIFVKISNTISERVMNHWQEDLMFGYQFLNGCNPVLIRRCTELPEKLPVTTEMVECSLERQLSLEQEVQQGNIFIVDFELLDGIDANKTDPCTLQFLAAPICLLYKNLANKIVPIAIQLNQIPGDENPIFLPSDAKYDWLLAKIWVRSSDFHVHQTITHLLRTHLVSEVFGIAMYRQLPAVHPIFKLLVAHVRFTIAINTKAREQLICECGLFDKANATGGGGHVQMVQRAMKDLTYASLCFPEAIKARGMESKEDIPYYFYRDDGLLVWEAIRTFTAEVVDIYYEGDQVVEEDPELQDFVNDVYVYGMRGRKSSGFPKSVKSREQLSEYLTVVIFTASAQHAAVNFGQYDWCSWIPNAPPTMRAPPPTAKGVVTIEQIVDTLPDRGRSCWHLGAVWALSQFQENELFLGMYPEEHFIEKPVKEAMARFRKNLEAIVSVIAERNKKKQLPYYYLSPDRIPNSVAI
# Assay: Inhibition of 5-LOX (unknown origin)
# Conditions: not given
row,Structure (SMILES),IC50 [nM]
1,COc1ccc(/C=c2\c(=O)[nH]n3c(=O)c4ccccc4nc23)cc1OC,600
2,COc1ccccc1/C=c1\c(=O)[nH]n2c(=O)c3ccccc3nc12,600
3,O=c1[nH]n2c(=O)c3ccccc3nc2/c1=C/c1ccc(Br)cc1,600
4,O=c1[nH]n2c(=O)c3ccccc3nc2/c1=C/c1cccc(F)c1,600
5,O=c1[nH]n2c(=O)c3ccccc3nc2/c1=C/c1ccccc1,600
6,O=c1[nH]n2c(=O)c3ccccc3nc2/c1=C/c1ccccc1F,600
7,COc1ccc(/C=c2\c(=O)[nH]n3c(=O)c4ccccc4nc23)cc1,600
8,O=c1[nH]n2c(=O)c3ccccc3nc2/c1=C/c1ccc(F)cc1,600
9,O=c1[nH]n2c(=O)c3ccccc3nc2/c1=C/c1ccc(Cl)cc1,600
10,COc1cc(/C=c2\c(=O)[nH]n3c(=O)c4ccccc4nc23)cc(OC)c1OC,600

# Target: T2, Prostaglandin G/H synthase 2 (Homo sapiens, UniProt P35354)
# T2 sequence (P35354 whole entry): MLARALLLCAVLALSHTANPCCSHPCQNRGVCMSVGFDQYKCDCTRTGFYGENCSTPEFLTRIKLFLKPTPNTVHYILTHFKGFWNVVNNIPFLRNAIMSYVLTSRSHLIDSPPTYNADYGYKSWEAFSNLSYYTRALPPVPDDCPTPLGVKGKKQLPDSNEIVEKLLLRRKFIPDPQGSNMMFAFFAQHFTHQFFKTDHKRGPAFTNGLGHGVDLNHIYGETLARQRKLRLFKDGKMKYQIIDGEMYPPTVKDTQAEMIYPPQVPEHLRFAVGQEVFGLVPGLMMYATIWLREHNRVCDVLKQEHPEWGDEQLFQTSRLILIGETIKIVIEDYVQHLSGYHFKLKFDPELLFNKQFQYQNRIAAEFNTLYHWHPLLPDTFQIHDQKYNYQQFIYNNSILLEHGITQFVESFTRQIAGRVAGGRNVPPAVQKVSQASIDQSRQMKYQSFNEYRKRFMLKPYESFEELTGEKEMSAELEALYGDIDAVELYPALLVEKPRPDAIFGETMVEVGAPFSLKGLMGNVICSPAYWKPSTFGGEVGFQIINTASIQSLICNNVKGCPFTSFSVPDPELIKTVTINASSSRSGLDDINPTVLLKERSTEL
# Assay: Inhibition of COX-2 (unknown origin)
# Conditions: not given
row,Structure (SMILES),IC50 [nM]
1,CCC(C)C(=O)[C@H]1C(=O)[C@@]2(CC=C(C)C)C[C@H](C[C@H]3[C@@H](C[C@H](C(C)(C)O)C3(C)C)C2=O)C1(C)C (stereo partly specified),8320
2,CC(=O)c1nnn(-c2ccc(S(N)(=O)=O)cc2)c1C,2610
3,Cc1c(C2=NNC(c3ccccc3)C2)nnn1-c1ccc(S(N)(=O)=O)cc1 (stereo unspecified),2610
4,CCC(=O)c1nnn(-c2ccc(S(N)(=O)=O)cc2)c1C,2610
5,C/C(=N\NC(=O)c1nnn(-c2ccc(S(N)(=O)=O)cc2)c1C)c1nnn(-c2ccc(S(N)(=O)=O)cc2)c1C,2610
6,C/C(=N\NC(=O)c1nnn(-c2ccc(S(N)(=O)=O)cc2)c1C)c1cc2ccccc2o1,2610
7,Cc1c(C(=O)NNC(=S)Nc2ccccc2)nnn1-c1ccc(S(N)(=O)=O)cc1,2610
8,CC(C)=CC[C@H]1C[C@@H]2C[C@@H]3[C@@H](C[C@]4(C)C(C)(C)OC[C@]34C)C(=O)[C@](C(=O)c3ccccc3)(C1=O)C2(C)C,5270
9,Cc1c(C(=O)NN)nnn1-c1ccc(S(N)(=O)=O)cc1,2920
10,Cc1c(C(=O)/C=C/c2ccccc2)nnn1-c1ccc(S(N)(=O)=O)cc1,2610
11,CC(=O)N1N=C(c2nnn(-c3ccc(S(N)(=O)=O)cc3)c2C)CC1c1ccccc1 (stereo unspecified),2610

# Target: T2, Prostaglandin G/H synthase 2
# Assay: Inhibition of human COX-2 using arachidonic acid as substrate incubated for 30 secs by ELISA
# Conditions: not given
row,Structure (SMILES),IC50 [nM]
1,CS(=O)(=O)c1ccc(-n2cc(-c3ccc(C(F)(F)F)cc3)nn2)cc1,226
2,NS(=O)(=O)c1ccc(-n2cc(-c3ccc(C(F)(F)F)cc3)nn2)cc1,3320
3,NS(=O)(=O)c1ccc(-c2nn(-c3ccc([N+](=O)[O-])cc3)cc2C=O)cc1,17
4,NS(=O)(=O)c1ccc(C(=O)OCCn2cc(-c3ccc(C(F)(F)F)cc3)nn2)cc1,131
5,CS(=O)(=O)c1ccc(C(=O)OCCn2cc(-c3ccc(C(F)(F)F)cc3)nn2)cc1,2
6,CS(=O)(=O)c1ccc(-c2nn(-c3ccc(S(N)(=O)=O)cc3)cc2C=O)cc1,17
7,O=Cc1cn(-c2ccc(Br)cc2)nc1-c1ccc(Br)cc1,17

# Target: Alpha-glucosidase (Saccharomyces cerevisiae S288c, UniProt P53341+P38158+P07265)
# Assay: Inhibition of Saccharomyces cerevisiae alpha-glucosidase using PNPG as substrate preincubated for 10 mins followed by substrate addition by spectrophotometric method
# Format: protein assay
# Conditions: not given
row,Structure (SMILES),IC50 [nM]
1,CC(=O)Oc1cc2oc(-c3ccccc3)cc2cc1-c1c[se]nn1,1030
2,CC(=O)Oc1cc2oc(-c3ccc(F)cc3)cc2cc1-c1c[se]nn1,1030
3,CC(=O)Oc1cc2oc(-c3cccc(F)c3)cc2cc1-c1c[se]nn1,1030
4,COc1ccc(-c2cc3cc(-c4c[se]nn4)c(OC(C)=O)cc3o2)cc1,1030
5,CC(=O)Oc1cc2oc(-c3cccc(Cl)c3)cc2cc1-c1c[se]nn1,1030
6,CC(=O)Oc1cc2oc(-c3ccc(C)cc3)cc2cc1-c1c[se]nn1,1030

# Target: T2, Prostaglandin G/H synthase 2
# Assay: Inhibition of human recombinant COX-2 using arachidonic acid as substrate preincubated for 5 mins followed by substrate addition and measured after 10 mins by microplate reader analysis
# Conditions: not given
row,Structure (SMILES),IC50 [nM]
1,CCOc1cc(/C=C2\C(=O)N(c3ccc(S(N)(=O)=O)cc3)N=C2C)ccc1O,150
2,CC1=NN(c2ccc(S(N)(=O)=O)cc2)C(=O)/C1=C\c1sccc1C,150
3,COc1cc(/C=C2\C(=O)N(c3ccc(S(N)(=O)=O)cc3)N=C2C)ccc1OCC#N,150
4,CC1=NN(c2ccc(S(N)(=O)=O)cc2)C(=O)/C1=C\c1cccc(OCc2ccccc2)c1,150
5,CC1=NN(c2ccc(S(N)(=O)=O)cc2)C(=O)/C1=C\c1c[nH]c2ccccc12,150
6,CC1=NN(c2ccc(S(N)(=O)=O)cc2)C(=O)/C1=C\c1ccc(F)cc1C,150

# Target: T3, Prostaglandin G/H synthase 2 (Homo sapiens) (UniProt P35354)
# T3 sequence (whole entry): T2 sequence (P35354 whole entry)
# Conditions: dose 2-10 nM, time 1.0 min
row,Structure (SMILES),inhibition [%]
1,CN1C/C(=C\c2cccs2)C2=NN(c3ccccc3)C(c3cccs3)C2C1 (stereo unspecified),< 98

# Tested on: not listed separately
# Assay: Inhibition of soybean 5-LOX using linoleic acid as substrate preincubated for 5 mins followed by substrate addition and measured after 3 mins
# Set-up: species or system Glycine max
# Conditions: not given
row,Structure (SMILES),IC50 [nM]
1,COC(=O)/C(=C/c1ccccc1)NC(=O)[C@H](CC(=O)O)NC(=O)[C@@H](C)c1ccc2cc(OC)ccc2c1,48900
2,COc1ccc2cc([C@H](C)C(=O)N[C@@H](Cc3c[nH]c4ccccc34)C(=O)N/C(=C\c3ccccc3)C(=O)O)ccc2c1,48900
3,COC(=O)/C(=C/c1ccccc1)NC(=O)[C@H](Cc1ccc(O)cc1)NC(=O)[C@@H](C)c1ccc2cc(OC)ccc2c1,48900
4,COc1ccc2cc([C@H](C)C(=O)N[C@@H](CCSC)C(=O)N/C(=C\c3ccccc3)C(=O)O)ccc2c1,48900
5,COc1ccc2cc([C@H](C)C(=O)N[C@@H](Cc3ccc(O)cc3)C(=O)N/C(=C\c3ccccc3)C(=O)O)ccc2c1,48900
6,COc1ccc2cc([C@H](C)C(=O)N[C@@H](CCCCN)C(=O)N/C(=C\c3ccccc3)C(=O)O)ccc2c1,48900
7,C/C=C(\NC(=O)[C@H](Cc1c[nH]c2ccccc12)NC(=O)[C@@H](C)c1ccc2cc(OC)ccc2c1)C(=O)OC,48900
8,COc1ccc2cc([C@H](C)C(=O)O)ccc2c1 [NAPROXEN],22000
9,COc1ccc2cc([C@H](C)C(=O)N[C@@H](C)C(=O)N/C(=C\c3ccccc3)C(=O)O)ccc2c1,48900

# Target: T4, Dihydrofolate reductase (Homo sapiens, UniProt P00374)
# T4 sequence (P00374 whole entry): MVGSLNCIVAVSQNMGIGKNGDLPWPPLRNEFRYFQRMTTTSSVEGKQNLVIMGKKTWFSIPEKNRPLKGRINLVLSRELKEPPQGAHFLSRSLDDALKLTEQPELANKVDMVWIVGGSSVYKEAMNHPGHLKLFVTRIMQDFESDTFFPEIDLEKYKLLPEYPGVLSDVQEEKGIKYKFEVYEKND
# Assay: Inhibition of DHFR (unknown origin)
# Conditions: not given
row,Structure (SMILES),IC50 [nM]
1,COc1cc(/C=C2\N=C(c3ccccc3)N(c3ccc(S(N)(=O)=O)cc3)C2=O)ccc1OC(=O)c1ccccc1,280

# Target: T2, Prostaglandin G/H synthase 2
# Assay: Inhibition of human COX-2 using arachidonic acid as substrate preincubated for 10 mins followed by substrate addition and measured after 30 secs by ELISA
# Conditions: not given
row,Structure (SMILES),IC50 [nM]
1,COc1ccc(/C=c2\c(=O)[nH]n3c(=O)c4ccccc4nc23)cc1OC,47
2,COc1ccccc1/C=c1\c(=O)[nH]n2c(=O)c3ccccc3nc12,47
3,O=c1[nH]n2c(=O)c3ccccc3nc2/c1=C/c1ccc(Br)cc1,47
4,O=c1[nH]n2c(=O)c3ccccc3nc2/c1=C/c1cccc(F)c1,47
5,O=c1[nH]n2c(=O)c3ccccc3nc2/c1=C/c1ccccc1,47
6,O=c1[nH]n2c(=O)c3ccccc3nc2/c1=C/c1ccccc1F,47
7,COc1ccc(/C=c2\c(=O)[nH]n3c(=O)c4ccccc4nc23)cc1,47
8,O=c1[nH]n2c(=O)c3ccccc3nc2/c1=C/c1ccc(F)cc1,47
9,O=c1[nH]n2c(=O)c3ccccc3nc2/c1=C/c1ccc(Cl)cc1,47
